The values below come from article PMC5522996, “Big conductance calcium‐activated potassium channel openers control spasticity without sedation” (British Journal of Pharmacology, 2017).

As usually defined, the EC50 is the concentration giving half of the maximal effect.

The test system of one data set is mouse vas deferens. Kind of data set: Electrically‐evoked contraction of the mouse vas deferens. Type of data set: cell-based. The method, then: Vasa deferentia were obtained from outbred MF‐1 mice and mounted vertically in a 4 mL organ bath at an initial tension of 0.5 g. The baths contained Mg^2+‐free Krebs solution (NaCl 118.2 mM, KCl 4.75 mM, KH2PO4 1.19 mM, NaHCO3 25.0 mM, glucose 11.0 mM and CaCl2·6H2O 2.54 mM), which was kept at 35–36°C and bubbled with 95% O2 and 5% CO2. […] Contractions were monitored by a computer using a data recording and analysis system as described previously (Ross et al., 2001). After placement in an organ bath, each tissue was subjected to a stimulation‐free period of 10 min and then stimulated for 10 min. Tissues were then subjected to alternate periods of stimulation (5 min) and rest (10 min) until consistent twitch amplitudes were obtained. This equilibration procedure was followed by a stimulation‐free period of 25 min. Tissues were then stimulated for 5 min after which the first agonist addition was made and stimulation continued until the end of the experiment.

The subject of data set [1] is ABH mice. Put plainly: Open‐field activity monitoring (hypomotility). The note with it: 1 mg·kg^−1 i.v., 30 min after administration. Format: in vivo, mouse. On the procedure:
Motor activity was assessed using 27.9 × 27.9 cm open field activity monitor chambers and computer software (Med Associates Inc, St. Albans, VT, USA.). This was typically performed in a darkened room. Recordings were initiated once the mouse entered the chamber and continued for 5 min. These chambers, allowing four simultaneous recordings of individual mice and were fitted with infrared beams that could detect movement in the X, Y planes. The total distance travelled (cm) was recorded. Results are expressed as mean ± SEM. These were analysed by Student's paired t‐test or a one‐way ANOVA with Bonferroni post hoc test, using SigmaStat V3/Sigmaplot V9 or V11 software (Systat Ltd Hounslow, UK. Al‐Izki et al., 2012).

The subject of data set [2] is ABH mice. Kind of data set: Temperature testing (hypothermia). Format: in vivo, mouse. The method, then:
These recordings were assessed 20 min following administration of compounds. Results are expressed as mean ± SEM, and were analysed by Student's t‐test or a one‐way ANOVA with Bonferroni post hoc test using Sigma/StatV3/Sigmpaplot V9 or V11 software (Pryce et al., 2014).

Data set [3] concerns CB1 receptor‐deficient ABH mice. Kind of data set: Spasticity in CB1 receptor‐deficient mice. Format: in vivo, mouse. The note with it: 5 mg·kg^−1 i.v., 30 min (Figure 5A).
A further data set relates to mice. Put plainly: Visible sedation, behaviour and tolerability in mice. The note with it: 1 mg·kg^−1 i.v.
The test system of data set [4] is spastic ABH mice with EAE. Put plainly: Spasticity: resistance to hindlimb flexion against a strain gauge. Particulars: 1 mg·kg^−1 i.v., racemate.

Consider `CC(CO)NC(=O)c1cccc(C=CCCCC(=O)N(C)C)c1` (centres unmarked) [VSN16, 3‐(6‐(dimethylamino)‐6‐oxohex‐1‐enyl)‐N‐(1‐hydroxypropan‐2‐yl)benzamide], for which the EC50 in the data set on mouse vas deferens (Mus musculus, read-out: EC50, inhibition of electrically‐evoked contraction) was around 10 nM. The “Antagonism of the action by SR141716A” value in the data set with mouse vas deferens (pre‐incubation of 31.6 nM SR141617A) is given as “antagonized”. In addition, in the data set with ABH mice [1], the “Hypomotility in open field” value was “did not induce”. Also, the Hypothermia result with ABH mice [2] (1 mg·kg^−1 i.v., 20 min after administration) is “did not induce”. For the same molecule, in the data set on ABH mice [2] (intracerebral (i.c.) route), the “Cannabimimetic effects after injection directly into the CNS” value was “failed to induce cannabimimetic effects”. Also, the Inhibition of spasticity result in data set [3] and in data set [4] was “significantly inhibit spasticity” throughout. Besides, the “Visible signs of sedation” value with mice is on record as “failed to induce visible signs of sedation”.
